Like-named read-outs stand apart in the source and are kept apart here.
Key:
Assay in all cases: SelectScreen Kinase Profiling, single point inhibition and IC50 for off-target kinases
Type in all cases: biochemical
off-target kinases [1] = target: off-target kinases (Homo sapiens, UniProt O00750); settings: PIK3C2B (PI3K-C2 beta), Adapta, ATP 10
off-target kinases [2] = target: off-target kinases (Homo sapiens, UniProt P45984); settings: MAPK9 (JNK2)
off-target kinases [3] = target: T1, off-target kinases (Homo sapiens, UniProt Q96BR1); settings: SGKL (SGK3), ZLYTE, ATP Km app
T1 sequence (Q96BR1 1-496): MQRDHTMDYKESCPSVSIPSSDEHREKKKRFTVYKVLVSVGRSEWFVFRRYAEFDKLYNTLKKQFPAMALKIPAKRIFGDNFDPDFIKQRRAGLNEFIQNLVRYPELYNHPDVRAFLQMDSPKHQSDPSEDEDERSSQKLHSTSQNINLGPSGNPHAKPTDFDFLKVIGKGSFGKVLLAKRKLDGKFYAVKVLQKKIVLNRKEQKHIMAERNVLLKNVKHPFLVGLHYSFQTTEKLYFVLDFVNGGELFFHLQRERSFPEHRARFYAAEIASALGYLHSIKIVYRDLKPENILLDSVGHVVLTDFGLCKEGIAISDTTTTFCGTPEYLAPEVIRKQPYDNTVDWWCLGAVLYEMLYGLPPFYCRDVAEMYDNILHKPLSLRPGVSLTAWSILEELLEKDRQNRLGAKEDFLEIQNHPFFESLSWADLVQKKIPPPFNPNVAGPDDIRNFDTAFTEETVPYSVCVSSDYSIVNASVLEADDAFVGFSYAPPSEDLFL

off-target kinases [4] = target: off-target kinases (Homo sapiens, UniProt Q99558); settings: MAP3K14 (NIK), LanthaScreen Binding
off-target kinases [5] = target: T2, off-target kinases (Homo sapiens, UniProt Q9BZL6); settings: PRKD2 (PKD2), ATP Km app, ZLYTE
T2 sequence (Q9BZL6 1-878): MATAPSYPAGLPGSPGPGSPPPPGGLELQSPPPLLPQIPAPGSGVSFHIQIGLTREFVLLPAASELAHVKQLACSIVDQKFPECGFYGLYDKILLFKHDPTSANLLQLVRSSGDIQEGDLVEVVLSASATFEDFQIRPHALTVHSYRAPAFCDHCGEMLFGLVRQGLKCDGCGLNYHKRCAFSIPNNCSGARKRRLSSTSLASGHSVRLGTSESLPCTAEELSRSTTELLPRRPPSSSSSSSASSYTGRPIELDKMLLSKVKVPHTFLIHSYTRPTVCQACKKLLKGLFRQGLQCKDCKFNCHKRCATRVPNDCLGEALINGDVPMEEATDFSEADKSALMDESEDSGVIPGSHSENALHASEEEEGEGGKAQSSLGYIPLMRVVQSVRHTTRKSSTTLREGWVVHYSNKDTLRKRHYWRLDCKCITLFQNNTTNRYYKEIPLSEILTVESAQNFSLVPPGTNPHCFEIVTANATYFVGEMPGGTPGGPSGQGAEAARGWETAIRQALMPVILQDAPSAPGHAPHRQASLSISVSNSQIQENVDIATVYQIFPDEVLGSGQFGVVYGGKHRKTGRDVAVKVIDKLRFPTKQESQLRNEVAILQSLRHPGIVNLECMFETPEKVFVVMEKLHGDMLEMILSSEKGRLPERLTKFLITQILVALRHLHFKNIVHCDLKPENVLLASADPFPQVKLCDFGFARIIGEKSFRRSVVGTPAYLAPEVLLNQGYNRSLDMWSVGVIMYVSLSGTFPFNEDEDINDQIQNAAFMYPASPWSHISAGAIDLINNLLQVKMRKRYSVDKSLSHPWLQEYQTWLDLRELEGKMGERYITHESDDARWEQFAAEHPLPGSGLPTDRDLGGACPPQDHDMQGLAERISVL

off-target kinases (Homo sapiens, UniProt Q99558), sequence (Q99558 whole entry): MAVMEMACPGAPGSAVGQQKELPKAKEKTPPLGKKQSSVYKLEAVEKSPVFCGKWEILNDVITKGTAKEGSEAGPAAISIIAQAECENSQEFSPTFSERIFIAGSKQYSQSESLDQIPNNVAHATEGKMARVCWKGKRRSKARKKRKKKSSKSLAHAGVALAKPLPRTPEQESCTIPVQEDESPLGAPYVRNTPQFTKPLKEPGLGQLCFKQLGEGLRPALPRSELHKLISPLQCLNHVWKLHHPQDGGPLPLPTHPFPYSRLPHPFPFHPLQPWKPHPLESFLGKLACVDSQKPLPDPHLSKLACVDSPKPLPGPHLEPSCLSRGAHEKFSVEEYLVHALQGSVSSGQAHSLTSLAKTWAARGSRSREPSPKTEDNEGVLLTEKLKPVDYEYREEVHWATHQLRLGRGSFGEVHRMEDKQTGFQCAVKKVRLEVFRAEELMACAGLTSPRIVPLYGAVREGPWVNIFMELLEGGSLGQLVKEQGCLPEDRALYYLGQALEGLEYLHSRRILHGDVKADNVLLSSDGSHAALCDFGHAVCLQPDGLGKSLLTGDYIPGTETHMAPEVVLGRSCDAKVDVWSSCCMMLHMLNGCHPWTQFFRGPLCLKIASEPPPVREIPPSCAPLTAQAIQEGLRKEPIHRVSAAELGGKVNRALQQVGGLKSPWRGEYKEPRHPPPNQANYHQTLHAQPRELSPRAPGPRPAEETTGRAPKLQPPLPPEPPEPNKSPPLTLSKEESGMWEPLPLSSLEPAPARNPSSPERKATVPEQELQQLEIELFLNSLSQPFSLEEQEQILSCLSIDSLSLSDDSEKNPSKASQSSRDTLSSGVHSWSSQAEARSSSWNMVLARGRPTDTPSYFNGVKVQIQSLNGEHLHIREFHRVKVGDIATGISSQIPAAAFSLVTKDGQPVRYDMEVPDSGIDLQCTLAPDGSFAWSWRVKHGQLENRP
off-target kinases (Homo sapiens, UniProt O00750), sequence (O00750 whole entry): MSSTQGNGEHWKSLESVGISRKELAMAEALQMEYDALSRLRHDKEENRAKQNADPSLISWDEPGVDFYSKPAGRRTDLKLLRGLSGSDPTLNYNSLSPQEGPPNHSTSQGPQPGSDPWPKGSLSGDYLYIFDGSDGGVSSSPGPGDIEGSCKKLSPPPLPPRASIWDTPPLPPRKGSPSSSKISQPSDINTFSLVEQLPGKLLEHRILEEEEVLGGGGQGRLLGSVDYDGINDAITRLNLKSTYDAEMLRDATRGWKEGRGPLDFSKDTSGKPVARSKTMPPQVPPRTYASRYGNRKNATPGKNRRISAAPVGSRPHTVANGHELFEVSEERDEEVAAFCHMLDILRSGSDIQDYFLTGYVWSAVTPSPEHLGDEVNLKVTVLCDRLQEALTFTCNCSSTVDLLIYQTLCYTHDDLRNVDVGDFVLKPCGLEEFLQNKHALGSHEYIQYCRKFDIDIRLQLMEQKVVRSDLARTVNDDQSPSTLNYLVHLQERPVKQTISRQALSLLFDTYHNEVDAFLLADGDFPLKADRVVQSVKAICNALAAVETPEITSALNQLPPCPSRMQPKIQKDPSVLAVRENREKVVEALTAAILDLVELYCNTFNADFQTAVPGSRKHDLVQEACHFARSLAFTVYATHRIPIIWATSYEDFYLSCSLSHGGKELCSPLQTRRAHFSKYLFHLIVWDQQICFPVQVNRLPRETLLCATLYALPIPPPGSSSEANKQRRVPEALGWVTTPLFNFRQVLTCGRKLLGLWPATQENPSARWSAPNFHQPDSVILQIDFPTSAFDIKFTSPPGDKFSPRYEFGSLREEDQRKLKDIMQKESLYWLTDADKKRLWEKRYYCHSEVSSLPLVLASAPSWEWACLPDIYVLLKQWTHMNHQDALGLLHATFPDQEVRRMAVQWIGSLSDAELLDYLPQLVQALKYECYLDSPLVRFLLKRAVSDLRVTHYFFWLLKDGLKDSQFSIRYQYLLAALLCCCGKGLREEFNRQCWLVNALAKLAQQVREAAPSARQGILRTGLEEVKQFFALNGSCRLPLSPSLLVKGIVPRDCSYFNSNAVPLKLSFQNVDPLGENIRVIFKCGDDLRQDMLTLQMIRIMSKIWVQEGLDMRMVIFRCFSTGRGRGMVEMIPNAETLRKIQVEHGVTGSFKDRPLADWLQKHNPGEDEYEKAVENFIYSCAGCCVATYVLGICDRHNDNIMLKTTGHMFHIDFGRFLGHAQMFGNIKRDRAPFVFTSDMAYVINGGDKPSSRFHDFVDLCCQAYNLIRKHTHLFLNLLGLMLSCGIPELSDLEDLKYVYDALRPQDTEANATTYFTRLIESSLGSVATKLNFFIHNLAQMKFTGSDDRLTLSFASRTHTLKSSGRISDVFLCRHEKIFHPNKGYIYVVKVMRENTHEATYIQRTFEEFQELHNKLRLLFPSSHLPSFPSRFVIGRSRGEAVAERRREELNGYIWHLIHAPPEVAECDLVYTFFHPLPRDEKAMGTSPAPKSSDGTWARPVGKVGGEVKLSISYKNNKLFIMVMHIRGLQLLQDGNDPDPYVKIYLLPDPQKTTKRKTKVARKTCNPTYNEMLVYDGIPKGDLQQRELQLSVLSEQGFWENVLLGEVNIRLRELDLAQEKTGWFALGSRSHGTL
off-target kinases (Homo sapiens, UniProt P45984), sequence (P45984 whole entry): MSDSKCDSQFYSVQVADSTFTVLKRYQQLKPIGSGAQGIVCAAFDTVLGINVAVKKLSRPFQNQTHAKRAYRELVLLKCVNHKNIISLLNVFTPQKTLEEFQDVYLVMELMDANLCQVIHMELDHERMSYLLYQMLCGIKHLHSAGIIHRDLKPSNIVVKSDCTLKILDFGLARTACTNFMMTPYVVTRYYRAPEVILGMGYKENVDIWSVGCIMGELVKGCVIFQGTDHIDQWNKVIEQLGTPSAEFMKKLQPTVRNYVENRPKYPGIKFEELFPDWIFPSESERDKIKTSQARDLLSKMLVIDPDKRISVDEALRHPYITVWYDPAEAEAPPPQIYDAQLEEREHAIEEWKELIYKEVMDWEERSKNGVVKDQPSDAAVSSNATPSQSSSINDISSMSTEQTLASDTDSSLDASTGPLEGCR

Which inhibition (off-target kinases [1]; read-out: % Inhibition 1) does the source give for N#Cc1cc(-c2ncnc(Nc3ccc(N4CCN(C5COC5)CC4)cc3)n2)ccc1OC1CCOCC1 [Compound 1, 5-(4-((4-(4-(oxetan-3-yl)piperazin-1-yl)phenyl)amino)-1,3,5-triazin-2-yl)-2-((tetrahydro-2H-pyran-4-yl)oxy)benzonitrile] here?
The inhibition was 3%.

And the inhibition (off-target kinases [1]; read-out: % Inhibition 2)?
Its inhibition is -7%.

And the inhibition (off-target kinases [1]; read-out: % Inhibition Avg)?
The inhibition was -2%.

What about the inhibition (off-target kinases [2]; LanthaScreen Binding, read-out: % Inhibition 1) of the same compound?
The inhibition was 12%.

And the inhibition (off-target kinases [2]; LanthaScreen Binding, read-out: % Inhibition 2)?
The inhibition was 14%.

What about the inhibition (off-target kinases [2]; LanthaScreen Binding, read-out: % Inhibition Avg) of the same compound?
The inhibition was 13%.

What about the inhibition (off-target kinases [2]; ZLYTE, ATP 100, read-out: % Inhibition 1) of the same compound?
Its inhibition is 12%.

What about the inhibition (off-target kinases [2]; ZLYTE, ATP 100, read-out: % Inhibition 2) of the same compound?
The inhibition was 21%.

And the inhibition (off-target kinases [2]; ZLYTE, ATP 100, read-out: % Inhibition Avg)?
Its inhibition is 16%.

What about the inhibition (off-target kinases [3]; read-out: % Inhibition 1) of the same compound?
The inhibition was 3%.

What about the inhibition (off-target kinases [3]; read-out: % Inhibition 2) of the same compound?
Its inhibition is 4%.

And the inhibition (off-target kinases [3]; read-out: % Inhibition Avg)?
The inhibition was 3%.

What about the inhibition (off-target kinases [4]; read-out: % Inhibition 1) of the same compound?
Its inhibition is 20%.

What about the inhibition (off-target kinases [4]; read-out: % Inhibition 2) of the same compound?
Its inhibition is 24%.

What about the inhibition (off-target kinases [4]; read-out: % Inhibition Avg) of the same compound?
Its inhibition is 22%.

What about the inhibition (off-target kinases [5]; read-out: % Inhibition 1) of the same compound?
The inhibition was 99%.

What about the inhibition (off-target kinases [5]; read-out: % Inhibition 2) of the same compound?
Its inhibition is 97%.

And the inhibition (off-target kinases [5]; read-out: % Inhibition Avg)?
The inhibition was 98%.
